Biological target: CB2 receptor (hCB2) (Homo sapiens, UniProt P34972)
Assay: competitive radioligand binding, [3H]CP-55, […] displacement

CB2 receptor (hCB2), sequence (P34972 whole entry): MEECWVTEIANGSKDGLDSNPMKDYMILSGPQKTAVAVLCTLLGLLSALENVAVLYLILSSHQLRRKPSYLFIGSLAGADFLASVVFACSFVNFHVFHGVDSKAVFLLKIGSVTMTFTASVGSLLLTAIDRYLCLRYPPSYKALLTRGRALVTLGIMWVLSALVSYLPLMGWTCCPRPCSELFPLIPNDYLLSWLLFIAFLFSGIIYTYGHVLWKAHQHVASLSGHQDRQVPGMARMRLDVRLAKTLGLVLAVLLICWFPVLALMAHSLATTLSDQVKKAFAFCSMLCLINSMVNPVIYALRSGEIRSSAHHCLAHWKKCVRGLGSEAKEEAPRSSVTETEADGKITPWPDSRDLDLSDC

C=C(C)[C@@H]1CC[C@]2(C(=O)O)CC[C@]3(C)[C@H](CC[C@@H]4[C@@]5(C)CC[C@H](O)C(C)(C)[C@@H]5CC[C@]43C)[C@@H]12 [BA, Betulinic acid]
Ki: 41.2 µM
